Entries after “also recorded” stand apart in the source; their conditions may differ.
B1: cellodextrin phosphorylase from Clostridium stercorarium (CsCDP) (Thermoclostridium stercorarium subsp. stercorarium DSM 8532) (protein)
chain: MRYGYFDEKAREYVITRPDTPTPWINYIGNGKYGGIVTNTGGGYSFHKDPQNRRITRYRYNNLPTDRPGRYIYVRDRLTGEYWNPGYQPVQRKLDSYRCRHGMGYTVLEGEYKGIAADVTYFVPDDRDFEIWLVQIRNLCHVERNLQVFSYAEFCFWDAIMDQQNVDWVQQINQGRYEDRLITWHPHHFKDACAFFATNAEINSFDTNLEAFIGRYRCESNPIAVETGACSNSVSYRMNGVGAFCIDVNLKPGEEREIIFILGFTENKSTIRDEIRDYLNVEYAKEALKRLKDSWEEYLDKLQIETPDRETNLFVNTWNQYQCKITFNWSRFVSMYQLGLGRGIGIRDSAQDTLGVMHSIPELAGGLIKRLIHCQYTDGRVYHLFFPLTGEGGIGDAPVVKFDWYSDDHLWLPIAANAYLKETANFDFLESVVPYNDNKTEGTVWEHLNRAMEFTYNHRGPHGLALIGRADWNDTLNLDMGNGIAESVFTSMLFCRAALEMIQMAEYTGQKDLATKYRYWYDEMKKAINEWCWDGEWYIRAFDDEGNVLGSGKNRYGKIFINSQSWAVLSMVAPEEYAKKCLESVYRHLNTKYGIVKVYPAYPEYNPKIGGMTTYPPGAKENGGIFAHTNPWVMIAECMMGNGRRAYQYYRQILPLTRNDDADLLEVEPYVYCQNILGKEHPQFGIGRNSWLTGTAAWNMVAVSQYILGIRPEYDGLTVDPCIPPDWKGFKVRRIFRGCVYNIEVRNPEGVSRGVKKIVVDGVETDKIPVKPAGTVCECVVIMG
B2: CsCDP: recombinant cellodextrin phosphorylase from Clostridium stercorarium DSM8532, Genbank U60580 (protein, listed as Clostridium stercorarium)
chain: MRYGYFDEKAREYVITRPDTPTPWINYIGNGKYGGIVTNTGGGYSFHKDPQNRRITRYRYNNLPTDRPGRYIYVRDRLTGEYWNPGYQPVQRKLDSYRCRHGMGYTVLEGEYKGIAADVTYFVPDDRDFEIWLVQIRNLCHVERNLQVFSYAEFCFWDAIMDQQNVDWVQQINQGRYEDRLITWHPHHFKDACAFFATNAEINSFDTNLEAFIGRYRCESNPIAVETGACSNSVSYRMNGVGAFCIDVNLKPGEEREIIFILGFTENKSTIRDEIRDYLNVEYAKEALKRLKDSWEEYLDKLQIETPDRETNLFVNTWNQYQCKITFNWSRFVSMYSWGLGRGIGIRDSAQDTLGVMHSIPELAGGLIKRLIHCQYTDGRVYHLFFPLTGEGGIGDAPVVKFDWYSDDHLWLPIAANAYLKETANFDFFQSVVPYNDNKTEGTVWEHLNRAMEFTYNHRGPHALPYSRADWNDTLNLDMGNGIAETLFTSMLFSEPPLKRFRCRISDKRIATKYRYWYDEMKQAINEWCWDGEWYIRAFDDEGNVLGSGKNRYGKIFINSQSWAVLSMVAPEEYAKKCLESVYRHLNTKYGIVKVYPAYPEYNPKIGGMTTYPPGAKENGGIFAHTNPWVMIAECMMGNGRRAYQYYRQILPLTRNDDADLLEVEPYVYCQNILGKEHPQFGIGRNSWLTGTAAWNMVAVSQYILGIRPEYDGLTVDPCIPPDWKGFKVRRIFRGCVYNIEVRNPEGVRRCEKNCRRGVETDKIPVKPAGTVCECVVIMG

Legend:
[1] = target: T1, cellodextrin phosphorylase from Clostridium stercorarium (CsCDP) (Thermoclostridium stercorarium, UniProt L7VUB7); experiment: CsCDP activity assay (orthophosphate release, synthetic direction); type: biochemical; settings: for Specific activity (U/mg): acceptor specificity, 30 mM Glc1P donor; for Specific activity (U/mg) / Relative activity (%): 50 mM MES buffer pH 6.5, 50 mM of acceptor; for Relative activity (%): relative to cellobiose
Protocol: (§1) Protein concentrations were measured with the BCA Protein Assay kit from Thermo Scientific. The activity assays were performed with 5% of purified enzyme (50 μg/mL, final concentration) in 50 mM MES buffer pH 6.5, containing 30 mM donor (Glc1P) or 100 mM donor (Gal1P) and 50 mM acceptor at 45° C. Samples were inactivated for 5 minutes at 95° C. before the amount of orthophosphate (Pi) was measured by the method of Gawronski and Benson, 2004. The Km and kcat values in the kinetic study were calculated from a Hanes-Woolf plot.

[2] = target: T1, cellodextrin phosphorylase from Clostridium stercorarium (CsCDP); experiment: Kinetic study of the synthetic reaction of CsCDP (Hanes-Woolf plot); type: biochemical; settings: donor substrate instead of Glc1P
Protocol: as §1

[3] = target: T1, cellodextrin phosphorylase from Clostridium stercorarium (CsCDP); experiment: CsCDP activity assay (orthophosphate release, synthetic direction); type: biochemical; settings: 20 mM of acceptor, 45° C. and pH 6.5
[4] = substrate: CCCCCCCCO[C@@H]1O[C@H](CO)[C@@H](O)[C@H](O)[C@H]1O; experiment: Kinetic study of the synthetic reaction of CsCDP (Hanes-Woolf plot); type: biochemical, Clostridium stercorarium; settings: other: synthetic reaction, 50 mM MES buffer pH 6.5 at 45° C.
[5] = substrate: O=P(O)(O)O[C@H]1O[C@H](CO)[C@@H](O)[C@H](O)[C@H]1O; experiment: as above; type: biochemical, Clostridium stercorarium; settings: other: synthetic reaction, 50 mM MES buffer pH 6.5 at 45° C.
[6] = substrate: O=P(O)(O)O[C@H]1O[C@H](CO)[C@H](O)[C@H](O)[C@H]1O; experiment: as above; type: biochemical, Clostridium stercorarium; settings: other: synthetic reaction, 50 mM MES buffer pH 6.5 at 45° C.
[7] = substrate: O=[N+]([O-])c1ccc(O[C@@H]2O[C@H](CO)[C@@H](O)[C@H](O)[C@H]2O)cc1; experiment: as above; type: biochemical, Clostridium stercorarium; settings: other: synthetic reaction, 50 mM MES buffer pH 6.5 at 45° C.

Row | Molecule | activity of CsCDP towards the substrate (in words) [1] | Specific activity (U/mg) ([1]; 45° C.) | Relative activity (%) ([1]; 45° C.) | further results
1 | OC[C@H]1O[C@H](O[C@H]2[C@H](O)[C@@H](O)C(O)O[C@@H]2CO)[C@H](O)[C@@H](O)[C@@H]1O (mixture of isomers) [Maltose] | very poor acceptors | 0.7 | 3 | –
2 | O=P(O)(O)O[C@H]1O[C@H](CO)[C@H](O)[C@H](O)[C@H]1O [Gal1P, α-galactose-1-phosphate] | active | – | – | efficiency on Gal1P as donor, times lower than on Glc1P [2]: about one thousand
3 | CCCCCCO[C@@H]1O[C@H](CO)[C@@H](O)[C@H](O)[C@H]1O [Hexyl β-glucoside] | – | 19.9 | 89 | –
4 | CO[C@@H]1O[C@H](CO)[C@@H](O)[C@H](O)[C@H]1O [Methyl β-glucoside] | – | 3.5 | 16 | –
5 | CCCCCCCCO[C@@H]1O[C@H](CO)[C@@H](O)[C@H](O)[C@H]1O [Octyl β-glucoside] | – | 20.4 | 91 | –
6 | O=[N+]([O-])c1ccc(O[C@@H]2O[C@H](CO)[C@@H](O[C@@H]3O[C@H](CO)[C@@H](O)[C@H](O)[C@H]3O)[C@H](O)[C@H]2O)cc1 [PNP β-cellobioside] | – | 29.0 | 129 | –
7 | O=[N+]([O-])c1ccc(O[C@@H]2O[C@H](CO)[C@@H](O)[C@H](O)[C@H]2O)cc1 [PNP β-glucoside, p-nitrophenyl beta-glucoside] | – | 24.7 | 110 | –
8 | O=[N+]([O-])c1ccc(O[C@@H]2OC[C@@H](O)[C@H](O)[C@H]2O)cc1 [PNP β-xyloside] | – | 7.5 | 33 | –
9 | OC[C@H]1O[C@@](CO)(O[C@H]2O[C@H](CO)[C@@H](O)[C@H](O)[C@H]2O)[C@@H](O)[C@@H]1O [Sucrose] | very poor acceptors | 0.7 | 3 | –
10 | Lactose | absolutely no activity could be detected; also recorded: inactive | – | – | –
11 | cellobiose | – | 22.4 | 100 | Activity (%) relative to the activity on cellobiose ([3]; donor 30 mM Glc1P): 100%
12 | oleoyl β-glucoside | better acceptors for CDP than cellobiose | 29.3 | 131 | Activity (%) relative to the activity on cellobiose ([3]; donor 30 mM Glc1P): 126%; Activity (%) relative to the activity on cellobiose ([3]; donor 100 mM Gal1P): 11%
13 | oleoyl β-sophoroside [Sophorolipid] | – | – | – | activity as fraction of that on cellobiose ([1]; Table 4): about one third; Activity (%) relative to the activity on cellobiose ([3]; donor 30 mM Glc1P): 36%
14 | B1 | – | – | – | Km [4]: 623 ± 26 µM; kcat [4]: 14.2 ± 0.5 s⁻¹; kcat/Km [4]: 20000 M⁻¹ s⁻¹; Km [5]: 2438 ± 16 µM; kcat [5]: 27.4 ± 1.7 s⁻¹; kcat/Km [5]: 10000 M⁻¹ s⁻¹; Km [6]: 31130 ± 683 µM; kcat [6]: 2.5 ± 0.1 s⁻¹; kcat/Km [6]: 100 M⁻¹ s⁻¹; Km [7]: 640 ± 38 µM; kcat [7]: 19.6 ± 1 s⁻¹; kcat/Km [7]: 30000 M⁻¹ s⁻¹
15 | B2 | – | – | – | optimal temperature for activity in the direction of glycoside synthesis ([1]; 50 mM cellobiose, 30 mM Glc1P, 50 mM MES buffer pH 6.5): ~65 °C; optimal pH for activity in the direction of glycoside synthesis ([1]; 50 mM cellobiose, 30 mM Glc1P, 50 mM MES buffer, 45° C.): around 6.5; specific activity of the purified enzyme ([1]; His6-tagged purified CsCDP, cellobiose acceptor): 22.4 U/mg
